Read-outs that look alike come from different tables or passages of the source.
Tests used:
human KHK-C = human KHK-C (Homo sapiens (Human), UniProt P50053); experiment: KHK Biochemical Assay (IC50), ADP-Glo, KHK-C; details: average of at least two separate assays
In short: (§1)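 Luminescent ADP-Glo read-out of ADP made by His-tagged KHK (BL21 (DE3) expression, Ni-NTA). Enzyme and compound sat together 30 min before ATP/fructose addition, then reacted 4 h at RT in Hepes pH 7.4 buffer with KCl, MgCl2, Triton-X. Quench 1 h, detection 1 h.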

HepG2 cells = experiment: F1P Cell-Based Assay (EC50), 13C6-fructose-1-phosphate in HepG2 cells (cell culture medium or 50% human plasma)
[1] = target: KHK-C expressed in NRK-52E cells (Homo sapiens (Human), UniProt P50053); experiment: KHK-C Cell-based Assay (EC50), NRK CTG, fructose-mediated ATP-depletion
KHK-C expressed in NRK-52E cells, sequence (P50053 whole entry): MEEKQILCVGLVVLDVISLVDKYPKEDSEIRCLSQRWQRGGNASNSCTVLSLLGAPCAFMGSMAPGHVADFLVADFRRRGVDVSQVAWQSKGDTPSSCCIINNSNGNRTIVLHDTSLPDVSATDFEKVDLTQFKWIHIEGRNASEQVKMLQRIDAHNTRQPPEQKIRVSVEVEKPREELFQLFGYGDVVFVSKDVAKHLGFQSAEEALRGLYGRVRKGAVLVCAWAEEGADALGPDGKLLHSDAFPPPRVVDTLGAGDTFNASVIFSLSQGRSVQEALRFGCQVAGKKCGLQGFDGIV
Experimental: Compounds were tested in a high-throughput 384-well assay format for their ability to attenuate fructose-mediated ATP-depletion in Normal Rat Kidney epithelial cells (NRK-52E) using the Cell-Titer Glo (CTG) assay, which measures cellular ATP levels based on luminescence signal by using the luciferase-luciferin system. Compounds were serially diluted (1:3) in DMSO.
The plates were incubated at 37° C., 5% CO2 for one day. Cells were then transduced on day 2 with 200 MOI of Adenovirus (VQAd KHKC C-(K)-DYK ViraQuest Inc.) using the same medium and method as day-1 to induce KHK-C expression in the cells. Cells were incubated at 37° C., 5% CO2 for one day. On day-3, the medium was changed to DMEM medium (Corning, Catalog #10-014-CM) with 0.5% FBS and Penicillin-Streptomycin after washing the cells twice with sterile PBS on the BioTEK EL406 washer and dispenser. Test compounds were then diluted 200-fold into the assay plates using the BioMek FX and were incubated for 1 hour at 37° C., 5% CO2. 25 mM (final concentration) of fructose was then dispensed into the plates using the BioTEK EL406 dispenser and the plates were incubated at 37° C., 5% CO2 for 48 hours before addition of CTG reagent and measurement of luminescence signal.

human KHK-A = human KHK-A (Homo sapiens (Human), UniProt P50053); experiment: KHK Biochemical Assay (IC50), ADP-Glo, KHK-A; details: average of at least two separate assays
human KHK-A, sequence (P50053 other isoform, or with tags, fused parts or gaps): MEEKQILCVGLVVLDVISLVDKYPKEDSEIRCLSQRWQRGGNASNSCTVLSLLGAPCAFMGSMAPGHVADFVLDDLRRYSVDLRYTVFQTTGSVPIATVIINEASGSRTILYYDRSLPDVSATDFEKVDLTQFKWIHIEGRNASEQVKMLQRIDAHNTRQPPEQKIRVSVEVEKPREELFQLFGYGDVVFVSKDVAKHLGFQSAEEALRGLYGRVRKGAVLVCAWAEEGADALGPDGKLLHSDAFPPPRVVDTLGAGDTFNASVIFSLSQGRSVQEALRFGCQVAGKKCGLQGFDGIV
In short: as §1

[2] = Homo sapiens, HepG2, HepG2 cells, 50% human plasma, read-out: F1P 50% HP EC50
[3] = Homo sapiens, HepG2, read-out: F1P 10% FBS EC50, HepG2 cells, cell culture medium (10% FBS)
[4] = read-out: NRK CTG EC50, NRK-52E cells, fructose-mediated ATP-depletion, Cell-Titer Glo

human KHK-C, sequence (P50053 whole entry): as the sequence (P50053 whole entry) above

| Compound | IC50 (human KHK-C) [nM] | EC50 (HepG2 cells; [2]) [nM] | EC50 (HepG2 cells; [3]) [nM] | EC50 [1] [nM] | IC50 (human KHK-C; ADP-Glo) [nM] | IC50 (human KHK-A; ADP-Glo) [nM] | also measured |
| --- | --- | --- | --- | --- | --- | --- | --- |
| C[C@H]1[C@H](O)CN1c1nc(-c2cccc([S@](C)(=N)=O)c2)c2c(n1)C(F)(F)CC2 (single isomer, unassigned) [Example 493] | 11.7 | 41.9 | 32.4 | 52.7 | – | – | – |
| C[C@H]1[C@H](O)CN1c1nc(-c2ccc3c(c2)C(C)(C)C[C@@H]3NS(C)(=O)=O)c2c(n1)C(F)(F)CC2 (single isomer, unassigned) [Example 632] | 0.5 | > 500 | 10.2 | 10.3 | – | – | – |
| C[C@H]1[C@H](O)CN1c1nc(-c2ccc3c(c2)[S@@](=N)(=O)CCO3)c2c(n1)C(F)(F)CC2 (single isomer, unassigned) [Example 821] | – | – | – | – | 5 | – | EC50 (HepG2 cells; HepG2 cells, 50% human plasma, read-out: F1P 50% HP EC50): 75.4 nM; EC50 (HepG2 cells; read-out: F1P 10% FBS EC50, HepG2 cells, cell culture medium (10% FBS)): 20 nM; EC50 ([1]; read-out: NRK CTG EC50, NRK-52E cells, Cell-Titer Glo, 25 mM fructose, 48 hours): 42.2 nM |
| C[C@H]1[C@H](O)CN1c1nc(-c2ccc3c(c2)COCC32CCC(=O)N2)c2c(n1)C(F)(F)CC2 (some centres unmarked) [Example 639] | – | 190 | 66.3 | 35 | – | – | – |
| C[C@H]1CCN1c1nc2c(c(-c3ccc4[nH]nnc4c3)n1)CCC2 [Example 729, (S)-5-(2-(2-methylazetidin-1-yl)-6,7-dihydro-5H-cyclopenta[d]pyrimidin-4-yl)-1H-benzo[d][1,2,3]triazole] | 33.5 | – | – | 273 | – | – | IC50 (human KHK-A): 29.1 nM |
| C[C@H]1[C@H](O)CN1c1nc(-c2ccc3c(c2)OCCC3NS(C)(=O)=O)c2c(n1)C(F)(F)CC2 (stereo partly drawn) [Example 757, N-[7-[7,7-difluoro-2-[(2S,3R)-3-hydroxy-2-methyl-azetidin-1-yl]-5,6-dihydrocyclopenta[d]pyrimidin-4-yl]chroman-4-yl]methanesulfonamide] | 2.6 | 59.7 | 20.6 | 32.4 | – | – | – |
| C[C@H]1[C@H](O)CN1c1nc(-c2cc3c(c(CNS(C)(=O)=O)c2)OCC3)c2c(n1)C(F)(F)CC2 [Example 761, N-[[5-[7,7-difluoro-2-[(2S,3R)-3-hydroxy-2-methyl-azetidin-1-yl]-5,6-dihydrocyclopenta[d]pyrimidin-4-yl]-2,3-dihydrobenzofuran-7-yl]methyl]methanesulfonamide] | 3.3 | 129 | 28.1 | 27.4 | – | – | – |
| NC1(c2ccc(-c3nc(N4CCC4C(F)F)nc4c3CCC4(F)F)cc2)CS(=O)(=O)C1 (centres unmarked) [Example 799, 3-amino-3-(4-(2-(2-(difluoromethyl)azetidin-1-yl)-7,7-difluoro-6,7-dihydro-5H-cyclopenta[d]pyrimidin-4-yl)phenyl)thietane 1,1-dioxide] | – | – | – | 21.5 | 1.9 | 16.2 | – |
| N#CCC(N)c1ccc(-c2nc(N3CC[C@@H]3C(F)(F)F)nc3c2CCC3(F)F)cc1 (stereo partly drawn) [Example 803, 3-amino-3-(4-(7,7-difluoro-2-((R)-2-(trifluoromethyl)azetidin-1-yl)-6,7-dihydro-5H-cyclopenta[d]pyrimidin-4-yl)phenyl)propanenitrile] | – | – | – | 11.3 | 0.5 | 0.8 | – |
| C[C@@H]1N(c2nc(-c3ccc4c(c3)OC[C@@]43COC(=O)N3)c3c(n2)C(F)(F)CC3)C[C@@]1(C)O [Example 829, (3R)-6-[7,7-difluoro-2-[(2S,3R)-3-hydroxy-2,3-dimethyl-azetidin-1-yl]-5,6-dihydrocyclopenta[d]pyrimidin-4-yl]spiro[2H-benzofuran-3,4′-oxazolidine]-2′-one] | – | – | – | 10.4 | 1 | 25.8 | – |
| COc1ccc(-c2nc(N3C[C@@H](O)[C@@H]3C)nc3c2CCC3(F)F)cc1S(=N)(=O)C(F)F (stereo partly drawn) [Example 832, (2S,3R)-1-[4-[3-(difluoromethylsulfonimidoyl)-4-methoxy-phenyl]-7,7-difluoro-5,6-dihydrocyclopenta[d]pyrimidin-2-yl]-2-methyl-azetidin-3-ol] | – | – | – | 20.5 | 5.7 | 2.5 | – |
| C[C@H]1CCN1c1nc2c(c(-c3cccc(S(=N)(=O)C4CCOCC4)c3)n1)CCC2 (stereo partly drawn) [Example 880, imino(3-(2-((S)-2-methylazetidin-1-yl)-6,7-dihydro-5H-cyclopenta[d]pyrimidin-4-yl)phenyl)(tetrahydro-2H-pyran-4-yl)-λ^6-sulfanone] | – | – | – | > 100 | 31.6 | 22.5 | – |
| COc1ccc(-c2nc(N3C[C@@H](O)[C@@H]3C)nc3c2CCC3(F)F)cc1S(C)(=O)=O [Example 882, (2S,3R)-1-(7,7-difluoro-4-(4-methoxy-3-(methylsulfonyl)phenyl)-6,7-dihydro-5H-cyclopenta[d]pyrimidin-2-yl)-2-methylazetidin-3-ol] | – | – | – | 34.6 | 5.1 | 4.5 | – |
| (S)-6-(2-(2-methylazetidin-1-yl)-6,7-dihydro-5H-cyclopenta[d]pyrimidin-4-yl)pyridine-2-sulfonamide [Example 223] | – | – | – | – | 26.9 | 33.7 | EC50 [1, 4]: 74.1 nM |
| ethyl N-[[4-[2-[(2S)-2-methylazetidin-1-yl]-6,7-dihydro-5H-cyclopenta[d]pyrimidin-4-yl]phenyl]methyl]carbamate [Example 359] | – | – | – | – | 89.7 | 72.4 | EC50 [1, 4]: 495 nM |

Further compounds by falling EC50 [1], results first:

| IC50 (human KHK-C) [nM] | EC50 (HepG2 cells; [2]) [nM] | EC50 (HepG2 cells; [3]) [nM] | EC50 [1] [nM] | IC50 (human KHK-C; ADP-Glo) [nM] | IC50 (human KHK-A; ADP-Glo) [nM] | Compound | also measured |
| --- | --- | --- | --- | --- | --- | --- | --- |
| 14.1 | 333 | 77.6 | 8.7 | – | – | C[C@H]1CCN1c1nc2c(c(-c3ccc(C4(O)CS(=O)(=O)C4)cc3)n1)CCC2 [Example 451, (S)-3-hydroxy-3-(4-(2-(2-methylazetidin-1-yl)-6,7-dihydro-5H-cyclopenta[d]pyrimidin-4-yl)phenyl)thietane 1,1-dioxide] | – |
| – | – | – | 8.7 | 0.6 | 6.3 | O=C1N[C@@]2(CO1)COc1cc(-c3nc(N4CCC4C(F)F)nc4c3CCC4(F)F)ccc12 (stereo partly drawn) [Example 831, (3R)-6-(2-(2-(difluoromethyl)azetidin-1-yl)-7,7-difluoro-6,7-dihydro-5H-cyclopenta[d]pyrimidin-4-yl)-2H-spiro[benzofuran-3,4′-oxazolidin]-2′-one] | – |
| 2.4 | 57 | 12.9 | 8.6 | – | – | C[C@H]1CCN1c1nc(-c2ccc([C@@H](N)C(F)F)cc2)c2c(n1)C(F)(F)CC2 [Example 649, (1R)-1-[4-[7,7-difluoro-2-[(2S)-2-methylazetidin-1-yl]-5,6-dihydrocyclopenta[d]pyrimidin-4-yl]phenyl]-2,2-difluoro-ethanamine] | – |
| 1.2 | 27.6 | 3.9 | 7.1 | – | – | C[C@H]1CCN1c1nc(-c2ccc(C3(N)CC(F)(F)C3)cc2)c2c(n1)C(F)(F)CC2 [Example 648, 1-[4-[7,7-difluoro-2-[(2S)-2-methylazetidin-1-yl]-5,6-dihydrocyclopenta[d]pyrimidin-4-yl]phenyl]-3,3-difluoro-cyclobutanamine] | – |
| – | 2.3 | 0.9 | 5.6 | – | – | COc1ccc(-c2nc(N3CC[C@@H]3C(F)(F)F)nc3c2CCC3(F)F)cc1[S@@](C)(=N)=O [Example 825, (S)-(5-(7,7-difluoro-2-((R)-2-(trifluoromethyl)azetidin-1-yl)-6,7-dihydro-5H-cyclopenta[d]pyrimidin-4-yl)-2-methoxyphenyl)(imino)(methyl)-λ^6-sulfanone] | – |
| 0.2 | 50.2 | 2.5 | 3.4 | – | – | C[C@H]1CCN1c1nc(-c2ccc3c(c2)OC[C@@H]3NS(C)(=O)=O)c2c(n1)C(F)(F)CC2 [Example 528, N—((R)-6-(7,7-difluoro-2-((S)-2-methylazetidin-1-yl)-6,7-dihydro-5H-cyclopenta[d]pyrimidin-4-yl)-2,3-dihydrobenzofuran-3-yl)methanesulfonamide] | – |
| – | – | – | 3.2 | 0.2 | 2 | O=C1N[C@@]2(CO1)COc1cc(-c3nc(N4CC[C@@H]4C(F)(F)F)nc4c3CCC4(F)F)ccc12 [Example 830, (R)-6-(7,7-difluoro-2-((R)-2-(trifluoromethyl)azetidin-1-yl)-6,7-dihydro-5H-cyclopenta[d]pyrimidin-4-yl)-2H-spiro[benzofuran-3,4′-oxazolidin]-2′-one] | – |
| – | 49 | 9.7 | 2.3 | 0.8 | – | C[C@H]1CCN1c1nc(-c2ccc3c(c2)OCCNC3=O)c2c(n1)C(F)(F)CC2 [Example 165, (S)-8-(7,7-difluoro-2-(2-methylazetidin-1-yl)-6,7-dihydro-5H-cyclopenta[d]pyrimidin-4-yl)-3,4-dihydrobenzo[f][1,4]oxazepin-5(2H)-one] | – |
| 0.5 | 41 | 6.5 | 2.2 | – | – | C[C@H]1CCN1c1nc(-c2ccc3c(c2)OCC3NS(C)(=O)=O)c2c(n1)C(F)(F)CC2 (stereo partly drawn) [Example 758, N-[6-[7,7-difluoro-2-[(2S)-2-methylazetidin-1-yl]-5,6-dihydrocyclopenta[d]pyrimidin-4-yl]-2,3-dihydrobenzofuran-3-yl]methanesulfonamide] | – |
